The values that follow come from patent US20260158136A1, “MEDICAMENT FOR TREATMENT AND/OR PREVENTION OF CANCER” (TORAY INDUSTRIES, INC., priority 2022, published 2026).

Assay type in all cases: cell-based
For assay [1], the system named is human colon cancer cell line (HCT116). As to the kind of experiment: THP-1-mediated phagocytic activity against HCT116, anti-CAPRIN-1 antibody with palbociclib or cisplatin (Example 5). The conditions noted are these: for phagocytic activity of combination test group compared with test group without a drug used in combination: Dunnett's test, with anti-CAPRIN-1 antibody, FIG. 5; for phagocytic activity against cancer cells: drug combination test group: HCT116 cultured 2 days with palbociclib 10 μM or cisplatin 1 μM, then anti-CAPRIN-1 humanized antibody #1 1 μg/mL + THP-1, 1 h. The protocol:
Specifically, in each inhibitor combination test group, the indicated drug used in combination was applied to human cancer cells, and then the cancer cells were cocultured with human monocytic cells (THP-1) in the presence of the anti-CAPRIN-1 antibody, and the antibody-mediated phagocytic activity against the cancer cells by THP-1 was evaluated.
The human-derived cancer cell used was a colon cancer cell line HCT116. On a 6-well plate, the human-derived cancer cells were cultured for 2 days in the presence of the respective drugs used in combination, for the palbociclib combination test group. Specifically, palbociclib was added at a concentration of 10 μM and cisplatin at a concentration of 1 μM to HCT 116. As a control, a test group without a drug used in combination, in which only the anti-CAPRIN-1 antibody was added, was established. In the control group, the cancer cells were cultured for 2 days without addition of the drug used in combination beforehand.
(§1) Each cancer cell line after the culture was dissociated with TrypLE Express (Thermo), and the cancer cells were stained by the addition of calcein-AM at a final concentration of 0.04 μg/mL and incubation at 37° C. for 10 minutes. Next, the cells were dispensed at 1×10^4 cancer cells per well to a 96-well plate, and the anti-CAPRIN-1 antibody at a final concentration of 1 μg/mL and 10×10^5 THP-1 cells were added to each well, followed by culture at 37° C. for 1 hour under a condition of 5% CO2. Then, the cells were washed with PBS (phosphate buffer solution) containing 1% FBS (fetal bovine serum), and the human monocytic cells were stained through a reaction with an APC (allophycocyanin)-labeled anti-human CD45 antibody (final concentration: 0.25 μg/mL). Further, dead cells were stained with propidium iodide (PI) (final concentration: 0.1 μg/mL), followed by the measurement of fluorescence from the cells by flow cytometry. PI-positive dead cells were excluded from analysis. The human monocytic cells THP-1 recognize an antibody bound onto cancer cells and phagocytize the cancer cells. At that time, if the cancer cells have been stained with calcein-AM, the monocytic cells ingesting the cancer cells by phagocytosis also become positive to calcein-AM. Thus, the phagocytic activity in this evaluation system was calculated as the ratio (%) of APC-positive/calcein-AM-positive cells to the whole calcein-AM-positive population.

Assay [2] has the same test system. Briefly: THP-1-mediated phagocytic activity against HCT116, anti-CAPRIN-1 antibody with ribociclib (Example 3). The procedure:
Specifically, in CDK inhibitor combination test group, the indicated ribociclib was applied to human cancer cells, and then the cancer cells were cocultured with human monocytic cells (THP-1) in the presence of the anti-CAPRIN-1 antibody, and the antibody-mediated phagocytic activity against the cancer cells by THP-1 was evaluated.
The human-derived cancer cell used was a colon cancer cell line HCT116. On a 6-well plate, the human-derived cancer cells were cultured for 2 days in the presence of the ribociclib (30 μM), for the CDK inhibitor combination test group. As a control, a test group without a drug used in combination, in which only the anti-CAPRIN-1 antibody was added, was established. In the control group, the cancer cells were cultured for 2 days without addition of the drug used in combination beforehand.
as §1, with “5×10^3” for “1×10^4”, “1.25×10^5” for “10×10^5”, “At that time, if the cancer cells have been stained with calcein-AM, the monocytic cells ingesting the cancer cells by phagocytosis also become positive to calcein-AM.” left out

Assay [3] shares this test system. As to the kind of experiment: THP-1-mediated phagocytic activity against HCT116, anti-CAPRIN-1 antibody with palbociclib or abemaciclib (Example 2A). Particulars: Student's t test, p<0.001; with anti-CAPRIN-1 antibody; FIG. 1. The protocol:
Specifically, in CDK inhibitor combination test group, the indicated drug used in combination was applied to human cancer cells, and then the cancer cells were cocultured with human monocytic cells (THP-1) in the presence of the anti-CAPRIN-1 antibody, and the antibody-mediated phagocytic activity against the cancer cells by THP-1 was evaluated.
The human-derived cancer cell used was a colon cancer cell line HCT116. On a 6-well plate, the human-derived cancer cells were cultured for 2 days in the presence of palbociclib (10 μM) or abemaciclib (1 μM) for the CDK inhibitor combination test group. As a control, a test group without a drug used in combination, in which only the anti-CAPRIN-1 antibody was added, was established. […]
(§2) Each cancer cell line after the culture was dissociated with TrypLE Express (Thermo), and the cancer cells were stained by the addition of calcein-AM at a final concentration of 0.04 μg/mL and incubation at 37° C. for 10 minutes. […] Further, dead cells were stained with propidium iodide (PI) (final concentration: 0.1 μg/mL), followed by the measurement of fluorescence from the cells by flow cytometry. […] Thus, the phagocytic activity in this evaluation system was calculated as the ratio (%) of APC-positive/calcein-AM-positive cells to the whole calcein-AM-positive population.

Assay [4] has the same test system. As to the kind of experiment: THP-1-mediated phagocytic activity against HCT116, anti-CAPRIN-1 antibody with palbociclib or abemaciclib, control IgG included (Example 2B). The conditions noted are these: Dunnett's test, p<0.001; anti-CAPRIN-1 antibody treatment group; FIG. 2. The protocol: Specifically, in CDK inhibitor combination test group, the indicated drug used in combination was applied to human cancer cells, and then the cancer cells were cocultured with human monocytic cells (THP-1) in the presence of the anti-CAPRIN-1 antibody, and the antibody-mediated phagocytic activity against the cancer cells by THP-1 was evaluated. A human IgG antibody (Sigma-Aldrich Co. LLC, Cat. No.: 4506) was used as a control antibody.
The human-derived cancer cell used was a colon cancer cell line HCT116. On a 6-well plate, the human-derived cancer cells were cultured for 2 days in the presence of the palbociclib ([…]) or abemaciclib (1 μM), for the CDK inhibitor combination test group. As a control, a test group without a drug used in combination, in which only the anti-CAPRIN-1 antibody was added, was established. […]
as §2

Assay [5] has the same test system. As to the kind of experiment: THP-1-mediated phagocytic activity against HCT116, anti-CAPRIN-1, anti-CD20 or anti-HER-2 antibody alone or with palbociclib (Example 4). The procedure:
The human-derived cancer cell used was a colon cancer cell line HCT116. On a 6-well plate, the human-derived cancer cells were cultured for 2 days in the presence of the respective drugs used in combination for the palbociclib combination test group. Specifically, palbociclib was added at a concentration of 10 μM to HCT 116. […] In the control group, the cancer cells were cultured for 2 days without addition of palbociclib beforehand.
as §1, with “Next, the cells were dispensed at 1×10^4 cancer cells per well to a 96-well plate, and the anti-CAPRIN-1 antibody at a final concentration of 1 μg/mL and 10×10^5 THP-1 cells were added to each well, followed by culture at 37° C. for 1 hour under a condition of 5% CO2.” left out, “[…]).” for “μg/mL).”

On to `N.N.[Cl][Pt][Cl]` [cisplatin], for which, in assay [1], the “phagocytic activity of combination test group compared with test group without a drug used in combination” value was “no significant change” and the “phagocytic activity against cancer cells” value is reported as at most 23%.
With `CN(C)C(=O)c1cc2cnc(Nc3ccc(N4CCNCC4)cn3)nc2n1C1CCCC1` [ribociclib, 7-cyclopentyl-N,N-dimethyl-2-[(5-piperazin-1-ylpyridin-2-yl)amino]pyrrolo[2,3-d]pyrimidine-6-carboxamide], in assay [2] (Dunnett's test, p<0.001, with anti-CAPRIN-1 antibody, FIG. 3), the “phagocytic activity of combination test group compared with test group without a drug used in combination” value is given as “significantly higher”. In assay [2] (combination versus antibody alone, HCT116), the “increase of antitumor effect of the anti-CAPRIN-1 antibody by the combination” value is on record as at least 2.5 times. The “phagocytic activity against cancer cells” value in assay [2] (ribociclib combination test group: HCT116 cultured 2 days with ribociclib 30 μM, then anti-CAPRIN-1 humanized antibody #1 1 μg/mL + THP-1, 1 h) was at least 58%.
On to `CC(=O)c1c(C)c2cnc(Nc3ccc(N4CCNCC4)cn3)nc2n(C2CCCC2)c1=O` [palbociclib, 6-acetyl-8-cyclopentyl-5-methyl-2-[(5-piperazin-1-ylpyridin-2-yl)amino]pyrido[2,3-d]pyrimidin-7-one], for which the “phagocytic activity of combination test group compared with test group without a drug used in combination” value in assay [3], in assay [4] and in assay [1] was “significantly higher” throughout. In addition, in assay [1], the “phagocytic activity against cancer cells” value is at least 54%.
In the case of “anti-CD20 antibody: anti-CD20 antibody ("Rituxan") purchased from Chugai Pharmaceutical Co., Ltd.”, the “effect of palbociclib combination on phagocytic activity compared with antibody without a drug used in combination” value in assay [5] (palbociclib 10 μM, Dunnett's test, FIG. 4) is given as “not remarkably increased”. Further, the “phagocytic activity against cancer cells” value is at most 11% in assay [5] (palbociclib combination test group: HCT116 cultured 2 days with palbociclib 10 μM, then antibody at final concentration 1 μg/mL + THP-1, 1 h) and at most 7% in assay [5] (test group without a drug used in combination: antibody only, 1 μg/mL + THP-1, 1 h).
In the case of `CCN1CCN(Cc2ccc(Nc3ncc(F)c(-c4cc(F)c5nc(C)n(C(C)C)c5c4)n3)nc2)CC1` [abemaciclib, N-[5-[(4-ethylpiperazin-1-yl)methyl]pyridin-2-yl]-5-fluoro-4-(7-fluoro-2-methyl-3-propan-2-ylbenzimidazol-5-yl)pyrimidin-2-amine], the “phagocytic activity of combination test group compared with test group without a drug used in combination” value in assay [3] and in assay [4] was “significantly higher” throughout.
